Tests used:
Experiment in all cases: relative viability (nuclei count vs DMSO), 5 days (fraction); higher = more cells survive
[1] = system: A-427
Method in brief: (§1)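 Values are medians from duplicate plates. Each reflects relative viability, defined as the nuclei count of treated wells over that of vehicle wells. Lung cancer cell lines in 1536-well plates were pin-tool dosed one day after seeding with one drug alone or with a fixed anchor-drug dose plus five library-drug doses (not always all listed) in √10 steps, then fixed, stained and imaged at 4× after 5 days.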

[2] = system: ABC-1
Method in brief: as §1

[3] = system: EPLC-272H
Method in brief: as §1

[4] = system: HCC-15
Method in brief: as §1

[5] = system: LC-2-ad
Method in brief: as §1

[6] = system: LK-2
Method in brief: as §1

[7] = system: NCI-H1734
Method in brief: as §1

[8] = system: NCI-H1793
Method in brief: as §1

[9] = system: NCI-H1915
Method in brief: as §1

[10] = system: NCI-H1944
Method in brief: as §1

[11] = system: NCI-H2342
Method in brief: as §1

[12] = system: NCI-H2347
Method in brief: as §1

[13] = system: NCI-H322M
Method in brief: as §1

[14] = system: NCI-H358
Method in brief: as §1

[15] = system: NCI-H441
Method in brief: as §1

[16] = system: NCI-H522
Method in brief: as §1

[17] = system: NCI-H647
Method in brief: as §1

[18] = system: NCI-H838
Method in brief: as §1

[19] = system: RERF-LC-KJ
Method in brief: as §1

## CCNC(=O)c1noc(-c2cc(C(C)C)c(O)cc2O)c1-c1ccc(CN2CCOCC2)cc1 [Luminespib] + NC(=O)Nc1cc(-c2cccc(F)c2)sc1C(=O)N[C@H]1CCCNC1 [AZD7762] (partner 0.2 µM)
[1]; first compound 0.002 µM
  relative viability: 0.865
[1]; first compound 0.006325 µM
  relative viability: 0.722
[1]; first compound 0.02 µM
  relative viability: 0.557
[1]; first compound 0.06325 µM
  relative viability: 0.258
[1]; first compound 0.2 µM
  relative viability: 0.205
[2]; first compound 0.002 µM
  relative viability: 0.822
[2]; first compound 0.006325 µM
  relative viability: 0.737
[2]; first compound 0.02 µM
  relative viability: 0.715
[2]; first compound 0.06325 µM
  relative viability: 0.248
[2]; first compound 0.2 µM
  relative viability: 0.212
[3]; first compound 0.002 µM
  relative viability: 0.224
[3]; first compound 0.006325 µM
  relative viability: 0.389
[3]; first compound 0.02 µM
  relative viability: 0.193
[3]; first compound 0.06325 µM
  relative viability: 0.0934
[3]; first compound 0.2 µM
  relative viability: 0.127
[4]; first compound 0.002 µM
  relative viability: 1.11
[4]; first compound 0.006325 µM
  relative viability: 1.11
[4]; first compound 0.02 µM
  relative viability: 1.36
[4]; first compound 0.06325 µM
  relative viability: 1.14
[4]; first compound 0.2 µM
  relative viability: 0.247
[5]; first compound 0.002 µM
  relative viability: 0.802
[5]; first compound 0.006325 µM
  relative viability: 0.854
[5]; first compound 0.02 µM
  relative viability: 0.833
[5]; first compound 0.06325 µM
  relative viability: 0.146
[5]; first compound 0.2 µM
  relative viability: 0.16
[6]; first compound 0.002 µM
  relative viability: 0.37
[6]; first compound 0.006325 µM
  relative viability: 0.481
[6]; first compound 0.02 µM
  relative viability: 0.278
[6]; first compound 0.06325 µM
  relative viability: 0.0715
[6]; first compound 0.2 µM
  relative viability: 0.0593
[7]; first compound 0.002 µM
  relative viability: 0.516
[7]; first compound 0.006325 µM
  relative viability: 0.497
[7]; first compound 0.02 µM
  relative viability: 0.28
[7]; first compound 0.06325 µM
  relative viability: 0.0991
[7]; first compound 0.2 µM
  relative viability: 0.124
[8]; first compound 0.002 µM
  relative viability: 0.406
[8]; first compound 0.006325 µM
  relative viability: 0.422
[8]; first compound 0.02 µM
  relative viability: 0.15
[8]; first compound 0.06325 µM
  relative viability: 0.0769
[8]; first compound 0.2 µM
  relative viability: 0.11
[9]; first compound 0.002 µM
  relative viability: 0.662
[9]; first compound 0.006325 µM
  relative viability: 0.674
[9]; first compound 0.02 µM
  relative viability: 0.627
[9]; first compound 0.06325 µM
  relative viability: 0.473
[9]; first compound 0.2 µM
  relative viability: 0.0604
[10]; first compound 0.002 µM
  relative viability: 0.525
[10]; first compound 0.006325 µM
  relative viability: 0.426
[10]; first compound 0.02 µM
  relative viability: 0.307
[10]; first compound 0.06325 µM
  relative viability: 0.149
[10]; first compound 0.2 µM
  relative viability: 0.134
[11]; first compound 0.002 µM
  relative viability: 0.472
[11]; first compound 0.006325 µM
  relative viability: 0.434
[11]; first compound 0.02 µM
  relative viability: 0.371
[11]; first compound 0.06325 µM
  relative viability: 0.492
[11]; first compound 0.2 µM
  relative viability: 0.26
[12]; first compound 0.002 µM
  relative viability: 0.844
[12]; first compound 0.006325 µM
  relative viability: 0.719
[12]; first compound 0.02 µM
  relative viability: 0.614
[12]; first compound 0.06325 µM
  relative viability: 0.469
[12]; first compound 0.2 µM
  relative viability: 0.202
[13]; first compound 0.002 µM
  relative viability: 0.585
[13]; first compound 0.006325 µM
  relative viability: 0.485
[13]; first compound 0.02 µM
  relative viability: 0.441
[13]; first compound 0.06325 µM
  relative viability: 0.376
[13]; first compound 0.2 µM
  relative viability: 0.391
[14]; first compound 0.002 µM
  relative viability: 0.607
[14]; first compound 0.006325 µM
  relative viability: 0.632
[14]; first compound 0.02 µM
  relative viability: 0.316
[14]; first compound 0.06325 µM
  relative viability: 0.14
[14]; first compound 0.2 µM
  relative viability: 0.134
[15]; first compound 0.002 µM
  relative viability: 1.08
[15]; first compound 0.006325 µM
  relative viability: 1.05
[15]; first compound 0.02 µM
  relative viability: 1.18
[15]; first compound 0.06325 µM
  relative viability: 0.308
[15]; first compound 0.2 µM
  relative viability: 0.126
[16]; first compound 0.002 µM
  relative viability: 0.866
[16]; first compound 0.006325 µM
  relative viability: 0.93
[16]; first compound 0.02 µM
  relative viability: 0.694
[16]; first compound 0.06325 µM
  relative viability: 0.713
[16]; first compound 0.2 µM
  relative viability: 0.353
[17]; first compound 0.002 µM
  relative viability: 0.506
[17]; first compound 0.006325 µM
  relative viability: 0.538
[17]; first compound 0.02 µM
  relative viability: 0.176
[17]; first compound 0.06325 µM
  relative viability: 0.0596
[17]; first compound 0.2 µM
  relative viability: 0.0506
[18]; first compound 0.002 µM
  relative viability: 0.994
[18]; first compound 0.006325 µM
  relative viability: 0.89
[18]; first compound 0.02 µM
  relative viability: 0.775
[18]; first compound 0.06325 µM
  relative viability: 0.625
[18]; first compound 0.2 µM
  relative viability: 0.597
[19]; first compound 0.002 µM
  relative viability: 0.936
[19]; first compound 0.006325 µM
  relative viability: 0.998
[19]; first compound 0.02 µM
  relative viability: 0.683
[19]; first compound 0.06325 µM
  relative viability: 0.533
[19]; first compound 0.2 µM
  relative viability: 0.178

## Cc1csc(=NC2CCCCC2)n1/N=C/c1ccc(O)c(O)c1O [MIM1] + NC(=O)Nc1cc(-c2cccc(F)c2)sc1C(=O)N[C@H]1CCCNC1 [AZD7762] (partner 0.2 µM)
[1]; first compound 0.2 µM
  relative viability: 0.706
[1]; first compound 0.6325 µM
  relative viability: 0.7
[1]; first compound 2 µM
  relative viability: 0.651
[1]; first compound 6.325 µM
  relative viability: 0.525
[1]; first compound 20 µM
  relative viability: 0.395
[2]; first compound 0.2 µM
  relative viability: 0.664
[2]; first compound 0.6325 µM
  relative viability: 0.896
[2]; first compound 2 µM
  relative viability: 0.814
[2]; first compound 6.325 µM
  relative viability: 0.788
[2]; first compound 20 µM
  relative viability: 0.341
[3]; first compound 0.2 µM
  relative viability: 0.224
[3]; first compound 0.6325 µM
  relative viability: 0.305
[3]; first compound 2 µM
  relative viability: 0.208
[3]; first compound 6.325 µM
  relative viability: 0.245
[3]; first compound 20 µM
  relative viability: 0.106
[4]; first compound 0.2 µM
  relative viability: 1.2
[4]; first compound 2 µM
  relative viability: 1.23
[4]; first compound 6.325 µM
  relative viability: 0.808
[4]; first compound 20 µM
  relative viability: 0.179
[5]; first compound 0.2 µM
  relative viability: 0.804
[5]; first compound 0.6325 µM
  relative viability: 0.706
[5]; first compound 2 µM
  relative viability: 0.9
[5]; first compound 6.325 µM
  relative viability: 0.389
[5]; first compound 20 µM
  relative viability: 0.234
[6]; first compound 0.2 µM
  relative viability: 0.423
[6]; first compound 0.6325 µM
  relative viability: 0.287
[6]; first compound 2 µM
  relative viability: 0.333
[6]; first compound 6.325 µM
  relative viability: 0.324
[6]; first compound 20 µM
  relative viability: 0.25
[7]; first compound 0.2 µM
  relative viability: 0.524
[7]; first compound 0.6325 µM
  relative viability: 0.467
[7]; first compound 2 µM
  relative viability: 0.492
[7]; first compound 6.325 µM
  relative viability: 0.417
[7]; first compound 20 µM
  relative viability: 0.158
[8]; first compound 0.2 µM
  relative viability: 0.614
[8]; first compound 2 µM
  relative viability: 0.412
[8]; first compound 6.325 µM
  relative viability: 0.424
[8]; first compound 20 µM
  relative viability: 0.271
[9]; first compound 0.2 µM
  relative viability: 0.691
[9]; first compound 0.6325 µM
  relative viability: 0.495
[9]; first compound 2 µM
  relative viability: 0.574
[9]; first compound 6.325 µM
  relative viability: 0.384
[9]; first compound 20 µM
  relative viability: 0.283
[10]; first compound 0.2 µM
  relative viability: 0.511
[10]; first compound 0.6325 µM
  relative viability: 0.479
[10]; first compound 2 µM
  relative viability: 0.475
[10]; first compound 6.325 µM
  relative viability: 0.397
[10]; first compound 20 µM
  relative viability: 0.243
[11]; first compound 0.2 µM
  relative viability: 0.414
[11]; first compound 0.6325 µM
  relative viability: 0.475
[11]; first compound 2 µM
  relative viability: 0.431
[11]; first compound 6.325 µM
  relative viability: 0.477
[11]; first compound 20 µM
  relative viability: 0.543
[12]; first compound 0.2 µM
  relative viability: 0.689
[12]; first compound 0.6325 µM
  relative viability: 0.779
[12]; first compound 2 µM
  relative viability: 0.797
[12]; first compound 6.325 µM
  relative viability: 0.623
[12]; first compound 20 µM
  relative viability: 0.57
[13]; first compound 0.2 µM
  relative viability: 0.564
[13]; first compound 0.6325 µM
  relative viability: 0.652
[13]; first compound 2 µM
  relative viability: 0.446
[13]; first compound 6.325 µM
  relative viability: 0.455
[13]; first compound 20 µM
  relative viability: 0.439
[14]; first compound 0.2 µM
  relative viability: 0.496
[14]; first compound 0.6325 µM
  relative viability: 0.512
[14]; first compound 2 µM
  relative viability: 0.468
[14]; first compound 6.325 µM
  relative viability: 0.342
[14]; first compound 20 µM
  relative viability: 0.231
[15]; first compound 0.2 µM
  relative viability: 1.16
[15]; first compound 0.6325 µM
  relative viability: 1.09
[15]; first compound 2 µM
  relative viability: 1.17
[15]; first compound 6.325 µM
  relative viability: 0.674
[15]; first compound 20 µM
  relative viability: 0.386
[16]; first compound 0.2 µM
  relative viability: 0.891
[16]; first compound 0.6325 µM
  relative viability: 0.957
[16]; first compound 2 µM
  relative viability: 0.824
[16]; first compound 6.325 µM
  relative viability: 0.78
[16]; first compound 20 µM
  relative viability: 0.511
[17]; first compound 0.2 µM
  relative viability: 0.502
[17]; first compound 0.6325 µM
  relative viability: 0.379
[17]; first compound 6.325 µM
  relative viability: 0.409
[17]; first compound 20 µM
  relative viability: 0.073
[18]; first compound 0.2 µM
  relative viability: 0.868
[18]; first compound 0.6325 µM
  relative viability: 0.947
[18]; first compound 2 µM
  relative viability: 0.751
[18]; first compound 6.325 µM
  relative viability: 0.84
[18]; first compound 20 µM
  relative viability: 0.691
[19]; first compound 0.2 µM
  relative viability: 0.957
[19]; first compound 0.6325 µM
  relative viability: 0.917
[19]; first compound 2 µM
  relative viability: 0.818
[19]; first compound 6.325 µM
  relative viability: 0.687
[19]; first compound 20 µM
  relative viability: 0.17

Reference: the supplement of paper PMC10307832
